According to patent US9040248B2, “Kits for detecting and monitoring endocrine disrupting chemicals (EDCs)” (The United States of America, as represented by the …, priority 2012, dated 2015):
“Also recorded” adds a separate entry of the source.

Key:
[1] = target: T1, GFP-GR (GFP-tagged glucocorticoid receptor) (Rattus norvegicus, UniProt P06536, C656G/D98G); assay: GFP-GR cytoplasm-to-nucleus translocation assay in 3617 cells; type: cell-based; conditions: 30 min treatment; water samples 100×
T1 construct: expressed in transfected cells; host or cells: 3617 cells (derivative of the 3134 mouse mammary adenocarcinoma line), tetracycline-repressible promoter
Protocol: (§1) For biological testing, samples prepared as above were reconstituted in DMSO and diluted in growth media to a final 1,000× concentration from the original water volume while maintaining DMSO at <0.2%. Samples were added to cells for 30 minutes at 100× concentration or as indicated in the text.
(§2) Prior to imaging, cells were grown overnight on 22-mm^2 coverslips in DMEM medium containing 10% charcoal stripped serum (Hyclone, Logan, Utah) without tetracycline (to allow the expression of the GFP-GR or GFP-AR, respectively) at a density of 2×10^5 per 6-well plate. For the automated experiments conducted in 96 or 384 well plates, cell density was 10,000 or 2,500 cells per well, respectively. Cells were treated with vehicle control, hormones (100 nM) or water samples for 30 min at 37° C. at a final concentration of 100× for water samples (unless otherwise specified). Additional negative controls contained samples that tested the activity of the POCIS membranes themselves.
Upon treatment, cells were fixed with 4% paraformaldehyde in PBS for 15 minutes and washed three times with PBS. Cells on the 22-mm^2 coverslips were mounted in […]® mounting media with DAPI (Vector Laboratories, Inc.) and examined on a Leica DMRA microscope with Leica 100×1.3-N.A. oil immersion objective. Images were acquired in green (GFP-GR and GFP-AR) and UV (DAPI) channel with SenSys (Photometrics) camera with KAF1400 chip configured to collect 0.067-μm-diameter pixels. […]
(§3) A Perkin Elmer Opera Image Screening System was used for fully automated collection of fluorescence images of cells. This system employed a 40× water immersion objective lens, laser illuminated Nipkow disk, and cooled CCD cameras to digitally capture high resolution confocal fluorescence micrographs (300 nm pixel size with 2×2 camera pixel binning). […] The algorithm also measured the mean GFP-GR or GFP-AR intensity in both compartments, and translocation was calculated as a ratio of these intensities. […]

[2] = target: T2, GFP-AR (GFP-tagged androgen receptor, eGFP-hAR) (Homo sapiens, UniProt P10275); assay: GFP-AR cytoplasm-to-nucleus translocation assay in 3108 cells; type: cell-based; conditions: 30 min treatment, hormones 100 nM or known concentrations, water samples 100×
T2 construct: expressed in transfected cells; host or cells: 3108 cells (derivative of the 3134 mouse mammary adenocarcinoma line), tetracycline-repressible promoter
Protocol: as §1
as §2, with “Additional negative controls contained samples that tested the activity of the POCIS membranes themselves.” left out
as §3

SMILES | GFP-GR nuclear translocation (in words) [1] | GFP-AR nuclear translocation (in words) [2] | GFP-AR nuclear translocation (in words) ([2]; listed as androst-4-en-3,6-dione)
CCNc1nc(Cl)nc(NC(C)C)n1 [atrazine] | did not induce GFP-GR translocation | – | –
C[C@@]12CCC[C@H]1[C@@H]1CC(=O)C3=CC(=O)CC[C@]3(C)[C@H]1CC2 (single isomer, unassigned) [Androst-4-en-3,6-dione] | did not induce GFP-GR translocation | induced GFP-tagged androgen receptor (GFP-AR) translocation | translocated to the nucleus in concentration-dependent manner; also recorded: induces concentration-dependent translocation
C[C@]12C[C@H](O)[C@H]3[C@@H](CCC4=CC(=O)CC[C@@]43C)[C@@H]1CC[C@@H]2C(=O)CO [corticosterone] | translocates to the nucleus in a concentration-dependent manner | – | –
